Tested on: 156681-154-R-J1 tumor spheroid viability
Experiment: Anticancer human tumor 156681-154-R-J1 patient-derived melanoma cell line growth inhibition
Conditions: spheroids with HUVEC and MSC; for IC50: curve of first compound; for viability, T/C: stronger effect = lower value
Outline: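 Complex tumor spheroids combined malignant cells with endothelial cells and mesenchymal stem cells. DNA-damaging drugs and DNA repair inhibitors were tested alone and in combination, at half-log dilutions down from clinical Cmax (top 10 microM if Cmax unknown), 0.25% DMSO final.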
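Further: spheroids exposed to compounds for 7 days before readout.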
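Wherever viability, T/C is given: percent of vehicle control viability where 100% = DMSO-treated spheroids.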

In the case of `CC(C)n1c(=O)n(C)c2cnc3cc(F)c(-c4ccc(OCCCN5CCCCC5)nc4)cc3c21` + CC[C@@]1(O)C(=O)OCc2c1cc1n(c2=O)Cc2cc3c(CN(C)C)c(O)ccc3nc2-1, the IC50 (second compound 0.003 µM) is reported as > 10000 nM, the IC50 (second compound 0.00949 µM) is reported as > 10000 nM and the IC50 (second compound 0.03 µM) is reported as 55.1 nM. For the same compound, the IC50 (second compound 0.0949 µM) was < 31.6 nM, the IC50 (second compound 0.3 µM) was < 31.6 nM and the viability, T/C (second compound 0.003 µM, first compound 0.0316 µM) was 83%. For the same compound, the viability, T/C (second compound 0.003 µM, first compound 0.1 µM) was 92.7%, the viability, T/C (second compound 0.003 µM, first compound 0.316 µM) was 77.3% and the viability, T/C (second compound 0.003 µM, first compound 1 µM) was 78.8%. The viability, T/C (second compound 0.003 µM, first compound 3.16 µM) was 97.9%, the viability, T/C (second compound 0.003 µM, first compound 10 µM) was 85.5% and the viability, T/C (second compound 0.00949 µM, first compound 0.0316 µM) was 77.2%. The viability, T/C (second compound 0.00949 µM, first compound 0.1 µM) was 75%, the viability, T/C (second compound 0.00949 µM, first compound 0.316 µM) was 74.4% and the viability, T/C (second compound 0.00949 µM, first compound 1 µM) was 76.3%. It also gave a viability, T/C (second compound 0.00949 µM, first compound 3.16 µM) of 80.8%, a viability, T/C (second compound 0.00949 µM, first compound 10 µM) of 78.8% and a viability, T/C (second compound 0.03 µM, first compound 0.0316 µM) of 57.8%. For the same compound, the viability, T/C (second compound 0.03 µM, first compound 0.1 µM) was 44.7%, the viability, T/C (second compound 0.03 µM, first compound 0.316 µM) was 30.3% and the viability, T/C (second compound 0.03 µM, first compound 1 µM) was 29.6%. The viability, T/C (second compound 0.03 µM, first compound 3.16 µM) was 44.8%, the viability, T/C (second compound 0.03 µM, first compound 10 µM) was 31.7% and the viability, T/C (second compound 0.0949 µM, first compound 0.0316 µM) was 11.9%. For the same compound, the viability, T/C (second compound 0.0949 µM, first compound 0.1 µM) was 10.2%, the viability, T/C (second compound 0.0949 µM, first compound 0.316 µM) was 10.8% and the viability, T/C (second compound 0.0949 µM, first compound 1 µM) was 13.2%. It also gave a viability, T/C (second compound 0.0949 µM, first compound 3.16 µM) of 11.8%, a viability, T/C (second compound 0.0949 µM, first compound 10 µM) of 13.6% and a viability, T/C (second compound 0.3 µM, first compound 0.0316 µM) of 10.2%. For the same compound, the viability, T/C (second compound 0.3 µM, first compound 0.1 µM) was 9.03%, the viability, T/C (second compound 0.3 µM, first compound 0.316 µM) was 9.13% and the viability, T/C (second compound 0.3 µM, first compound 1 µM) was 9.94%. It also gave a viability, T/C (second compound 0.3 µM, first compound 3.16 µM) of 9.43% and a viability, T/C (second compound 0.3 µM, first compound 10 µM) of 15%.
